In the supplement of paper PMC10307832:

Compound: C[C@@H](Oc1cc(-c2cnn(C3CCNCC3)c2)cnc1N)c1c(Cl)ccc(F)c1Cl [Crizotinib] + O=C(c1cc(Cc2n[nH]c(=O)c3ccccc23)ccc1F)N1CCN(C(=O)C2CC2)CC1 [Olaparib] (partner 8 µM)
Test: relative viability (nuclei count vs DMSO), 5 days (fraction); higher = more cells survive
Details: first compound 0.01 µM
Procedure, shortened: (§1)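 Relative viability is defined as nuclei in treated wells over nuclei in vehicle wells. Duplicate plates were run and medians reported. Lung cancer cell lines in 1536-well plates were dosed by pin tool one day after seeding, with one drug or with a fixed anchor-drug dose plus five library-drug doses (not always all listed) in √10 steps, and nuclei were counted after 5 days.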

| Cell Line | relative viability |
| --- | --- |
| A-427 | 0.745 |
| BEN | 1.04 |
| CAL-12T | 0.811 |
| COR-L23 | 0.298 |
| COR-L 105 | 0.661 |
| Calu-6 | 0.606 |
| ChaGo-K-1 | 0.422 |
| EBC-1 | 0.563 |
| EKVX | 0.754 |
| EMC-BAC-2 | 0.501 |
| EPLC-272H | 0.624 |
| H3255 | 0.565 |
| HARA | 0.876 |
| HCC-15 | 0.724 |
| HCC-44 | 0.923 |
| HCC-78 | 0.737 |
| HCC-366 | 0.357 |
| HCC-827 | 0.618 |
| HOP-62 | 0.38 |
| IA-LM | 0.797 |
| LC-2-ad | 0.806 |
| LCLC-97TM1 | 0.308 |
| LCLC-103H | 0.824 |
| LK-2 | 0.678 |
| LOU-NH91 | 0.917 |
| LU99A | 0.246 |
| NCI-H727 | 0.462 |
| NCI-H1299 | 0.95 |
| NCI-H1703 | 0.389 |
| NCI-H2228 | 0.539 |

Same assay, conditions: first compound 0.03162 µM

| Cell Line | relative viability |
| --- | --- |
| 201T | 0.83 |
| A549 | 0.259 |
| A-427 | 0.777 |
| ABC-1 | 1.11 |
| BEN | 1.06 |
| CAL-12T | 0.794 |
| COR-L23 | 0.343 |
| COR-L 105 | 0.689 |
| Calu-6 | 0.571 |
| ChaGo-K-1 | 0.413 |
| EBC-1 | 0.664 |
| EKVX | 0.922 |
| EMC-BAC-2 | 0.489 |
| EPLC-272H | 0.729 |
| H3255 | 0.56 |
| HARA | 0.929 |
| HCC-15 | 0.648 |

| Cell Line | relative viability |
| --- | --- |
| HCC-44 | 1.04 |
| HCC-78 | 0.646 |
| HCC-366 | 0.357 |
| HCC-827 | 0.58 |
| HOP-62 | 0.415 |
| IA-LM | 0.844 |
| LC-2-ad | 0.689 |
| LCLC-97TM1 | 0.32 |
| LCLC-103H | 0.766 |
| LK-2 | 0.638 |
| LOU-NH91 | 0.876 |
| LU99A | 0.258 |
| NCI-H727 | 0.565 |
| NCI-H1299 | 0.95 |
| NCI-H1648 | 0.981 |
| NCI-H1703 | 0.757 |
| NCI-H2228 | 0.595 |

Same assay, conditions: first compound 0.1 µM

| Cell Line | relative viability |
| --- | --- |
| 201T | 0.892 |
| A549 | 0.362 |
| A-427 | 0.783 |
| ABC-1 | 0.823 |
| BEN | 0.924 |
| CAL-12T | 0.743 |
| COR-L23 | 0.372 |
| COR-L 105 | 0.757 |
| Calu-6 | 0.522 |
| ChaGo-K-1 | 0.418 |
| EBC-1 | 0.643 |
| EKVX | 0.866 |
| EMC-BAC-2 | 0.499 |
| EPLC-272H | 0.805 |
| H3255 | 0.575 |
| HARA | 0.957 |
| HCC-15 | 0.712 |

| Cell Line | relative viability |
| --- | --- |
| HCC-44 | 1.05 |
| HCC-78 | 0.705 |
| HCC-366 | 0.329 |
| HCC-827 | 0.637 |
| HOP-62 | 0.479 |
| IA-LM | 0.821 |
| LC-2-ad | 0.712 |
| LCLC-97TM1 | 0.353 |
| LCLC-103H | 0.794 |
| LK-2 | 0.87 |
| LOU-NH91 | 0.925 |
| LU99A | 0.272 |
| NCI-H727 | 0.647 |
| NCI-H1299 | 0.92 |
| NCI-H1648 | 0.861 |
| NCI-H1703 | 0.528 |
| NCI-H2228 | 0.624 |

Same assay, conditions: first compound 0.3162 µM

| Cell Line | relative viability |
| --- | --- |
| 201T | 0.846 |
| BEN | 0.974 |
| CAL-12T | 0.709 |
| COR-L23 | 0.366 |
| COR-L 105 | 0.584 |
| Calu-6 | 0.624 |
| ChaGo-K-1 | 0.297 |
| EBC-1 | 0.182 |
| EKVX | 0.777 |
| EPLC-272H | 0.974 |
| H3255 | 0.518 |
| HARA | 0.793 |
| HCC-15 | 0.76 |
| HCC-44 | 0.955 |
| HCC-78 | 0.681 |
| HCC-827 | 0.517 |
| HOP-62 | 0.316 |
| IA-LM | 0.691 |
| LCLC-97TM1 | 0.384 |
| LCLC-103H | 0.816 |
| LK-2 | 0.461 |
| LOU-NH91 | 0.848 |
| LU99A | 0.236 |
| NCI-H727 | 0.518 |
| NCI-H1299 | 0.947 |
| NCI-H1648 | 1.27 |
| NCI-H1703 | 0.414 |
| NCI-H2228 | 0.716 |

Same assay, conditions: first compound 1 µM

| Cell Line | relative viability |
| --- | --- |
| 201T | 0.861 |
| A549 | 0.456 |
| A-427 | 0.623 |
| ABC-1 | 0.63 |
| BEN | 1.15 |
| CAL-12T | 0.723 |
| COR-L23 | 0.382 |
| COR-L 105 | 0.7 |
| Calu-6 | 0.549 |
| ChaGo-K-1 | 0.444 |
| EBC-1 | 0.154 |
| EKVX | 0.793 |
| EMC-BAC-2 | 0.474 |
| EPLC-272H | 0.837 |
| H3255 | 0.627 |
| HARA | 0.635 |
| HCC-15 | 0.772 |

| Cell Line | relative viability |
| --- | --- |
| HCC-44 | 1 |
| HCC-78 | 0.837 |
| HCC-366 | 0.356 |
| HCC-827 | 0.655 |
| HOP-62 | 0.504 |
| IA-LM | 0.73 |
| LC-2-ad | 0.751 |
| LCLC-97TM1 | 0.428 |
| LCLC-103H | 0.749 |
| LK-2 | 0.753 |
| LOU-NH91 | 0.912 |
| LU99A | 0.266 |
| NCI-H727 | 0.737 |
| NCI-H1299 | 0.975 |
| NCI-H1648 | 0.77 |
| NCI-H1703 | 0.463 |
| NCI-H2228 | 0.668 |

Compound: O=C(c1cc(Cc2n[nH]c(=O)c3ccccc23)ccc1F)N1CCN(C(=O)C2CC2)CC1 [Olaparib] + Nc1nc2[nH]cc(CCc3ccc(C(=O)N[C@@H](CCC(=O)O)C(=O)O)cc3)c2c(=O)[nH]1 [Pemetrexed] (partner 0.2 µM)
Test: as above
Details: first compound 0.08 µM
Procedure, shortened: as §1

| Cell Line | relative viability |
| --- | --- |
| 201T | 0.309 |
| A-427 | 0.922 |
| BEN | 0.725 |
| CAL-12T | 1.48 |
| COR-L23 | 0.221 |
| COR-L 105 | 1.31 |
| ChaGo-K-1 | 0.266 |
| EKVX | 0.425 |
| EMC-BAC-2 | 0.473 |
| EPLC-272H | 0.316 |
| H3255 | 0.598 |
| HARA | 0.274 |
| HCC-15 | 0.215 |
| HCC-44 | 0.658 |
| HCC-78 | 0.885 |
| HCC-366 | 0.165 |
| HCC-827 | 0.27 |
| HOP-62 | 0.353 |
| LC-2-ad | 0.25 |
| LCLC-97TM1 | 0.209 |
| LCLC-103H | 0.421 |
| LK-2 | 0.298 |
| LOU-NH91 | 0.389 |
| LU99A | 0.187 |
| NCI-H1563 | 0.91 |
| NCI-H1648 | 0.967 |
| NCI-H2228 | 0.395 |

Same assay, conditions: first compound 0.253 µM

| Cell Line | relative viability |
| --- | --- |
| 201T | 0.346 |
| A-427 | 0.947 |
| BEN | 0.672 |
| CAL-12T | 1.04 |
| COR-L23 | 0.195 |
| COR-L 105 | 1 |
| ChaGo-K-1 | 0.258 |
| EKVX | 0.401 |
| EMC-BAC-2 | 0.478 |
| EPLC-272H | 0.312 |
| H3255 | 0.58 |
| HARA | 0.251 |
| HCC-15 | 0.224 |
| HCC-44 | 0.619 |
| HCC-78 | 0.886 |
| HCC-366 | 0.195 |
| HCC-827 | 0.275 |
| HOP-62 | 0.316 |
| LC-2-ad | 0.252 |
| LCLC-97TM1 | 0.209 |
| LCLC-103H | 0.499 |
| LK-2 | 0.304 |
| LOU-NH91 | 0.366 |
| LU99A | 0.212 |
| NCI-H1563 | 0.76 |
| NCI-H1648 | 0.708 |
| NCI-H2228 | 0.323 |

Same assay, conditions: first compound 2.53 µM

| Cell Line | relative viability |
| --- | --- |
| 201T | 0.298 |
| A-427 | 0.87 |
| BEN | 0.828 |
| CAL-12T | 1.16 |
| COR-L23 | 0.177 |
| COR-L 105 | 0.838 |
| ChaGo-K-1 | 0.261 |
| EKVX | 0.418 |
| EMC-BAC-2 | 0.472 |
| EPLC-272H | 0.345 |
| H3255 | 0.577 |
| HARA | 0.272 |
| HCC-15 | 0.209 |
| HCC-44 | 0.716 |
| HCC-78 | 0.906 |
| HCC-366 | 0.206 |
| HCC-827 | 0.253 |
| HOP-62 | 0.337 |
| LC-2-ad | 0.28 |
| LCLC-97TM1 | 0.2 |
| LCLC-103H | 0.493 |
| LK-2 | 0.257 |
| LOU-NH91 | 0.381 |
| LU99A | 0.161 |
| NCI-H1563 | 0.834 |
| NCI-H2228 | 0.311 |

Same assay, conditions: first compound 8 µM

| Cell Line | relative viability |
| --- | --- |
| 201T | 0.323 |
| A-427 | 0.73 |
| BEN | 0.895 |
| CAL-12T | 0.963 |
| COR-L23 | 0.21 |
| COR-L 105 | 0.914 |
| ChaGo-K-1 | 0.256 |
| EKVX | 0.365 |
| EMC-BAC-2 | 0.491 |
| EPLC-272H | 0.357 |
| H3255 | 0.597 |
| HARA | 0.232 |
| HCC-15 | 0.221 |
| HCC-44 | 0.748 |
| HCC-78 | 0.908 |
| HCC-366 | 0.271 |
| HCC-827 | 0.261 |
| HOP-62 | 0.322 |
| LC-2-ad | 0.276 |
| LCLC-97TM1 | 0.141 |
| LCLC-103H | 0.426 |
| LK-2 | 0.327 |
| LOU-NH91 | 0.343 |
| LU99A | 0.148 |
| NCI-H1563 | 0.686 |
| NCI-H1648 | 0.735 |
| NCI-H2228 | 0.322 |
